Source: PubChem BioAssay AID1963850 (Molecular Pharmacology Branch, DTP, NCI, 2024)

Test system: 192522-019-R-J2-PDC complex tumor spheroid viability
Test: Anticancer human tumor 192522-019-R-J2-PDC patient-derived colon adenocarcinoma cell line growth inhibition [POLQ]
Settings: for IC50: curve of first compound; for viability, T/C: stronger effect = lower value
Method: Multicellular complex tumor spheroid response to Polymerase (POL) inhibitors (novobiocin, ART-558, RP6685) in combination with a variety of drugs and investigational agents in selected tumor cell lines
The POL inhibitors (novobiocin, ART-558, and RP6685) were evaluated both individually and in combination with standard of care and investigational anticancer small molecules within a complex spheroid model of solid tumors. . Complex spheroids include a stromal component modeled by human endothelial cells (HUVEC) and fibroblasts modeled by human mesenchymal stem cells (MSCs). The concentration ranges selected for each drug and investigational agent were based upon clinically achievable concentrations if the clinical Cmax of the agent was known.
Compounds. The drugs and investigational agents: novobiocin (NSC847541), ART-558 (NSC835418), RP-6685 (NSC848927), peposertib (NSC802822), ceralasertib (NSC780249), elimusertib (NSC800525), camonsertib (NSC841442), AZD-1390 (NSC803789), olaparib (NSC753686), talazoparib (NSC767125), rucaparib (NSC756644), sotorasib (NSC818433), MRTX-1133 (NSC836407), SN-38 (NSC673596), topotecan (NSC609699), epotoside (NSC141540), doxorubicin (NSC123127), gemcitabine (NSC613327), 5-fluorouracil (NSC19893), paclitaxel (NSC125973), vemurafenib (NSC761431), MSA-2 (NSC828583), SN-011 (NSC837082), adavosertib (NSC754352), prexasertib (NSC758257), carboplatin (NSC241240) and oxaliplatin (NSC266046), were obtained from the National Cancer Institute (NCI) Developmental Therapeutics Program Chemical Repository (21). The FDA-approved anticancer drug set is available from the Developmental Therapeutics Program at https://dtp.cancer.gov/organization/dscb/obtaining/. […] The stock solutions were prepared in dimethyl sulfoxide (DMSO, Sigma-Aldrich, St. Louis, MO, cat. D2650), except for the platinum compounds which were prepared in saline (Quality Biological, Gaithersburg, MD, cat. 114-055-101), at 800-fold the tested concentration and stored at -70 degrees C prior to their use. All drugs and investigational agents were tested over a range starting from a high concentration at or near the clinical Cmax and decreasing in half-log increments. If the clinical Cmax for an agent had not been determined, the highest concentration tested was 10 microM, except for SN-38, which was tested at a high concentration of 1 microM.
Cell Culture. All cells were maintained in an incubator at 37 degrees C and 5% CO2 with 95% humidity. The PDC lines were cultured according to standard operating procedures established by the NCI PDMR (https://pdmr.cancer.gov). Table 3 of the manuscript, lists the cell lines along with the number of the three cell types plated to form the mct-spheroids and media for tumor cell growth. After thawing, all PDC lines, except 997537-175-T-J1-PDC and 415267-285-R-J2-PDC, were cultured in Matrigel-coated flasks prepared with a working solution of 1X Ham's F-12 nutrient mix, without supplementation (Thermo Fisher Scientific, cat. 11765054), 100 U/mL penicillin-streptomycin (Thermo Fisher Scientific, cat. 15140122), and 2.5% Matrigel (Corning Inc., Corning, NY, cat. 354248) for the first three passages. The two PDC lines 997537-175-T-J1-PDC and 415267-285-R-J2-PDC were cultured on uncoated flasks. The 857933-349-R-J2-PDC line was cultured in 6C/Colon 1B media containing advanced DMEM/F-12 (Thermo Fisher Scientific, cat. 12634028), 10 mM HEPES (Thermo Fisher Scientific, cat. 15630080), 1X GlutaMAX supplement (Thermo Fisher Scientific, cat. 35050061), 0.1 mg/mL primocin (InvivoGen, San Diego, CA, cat. ant-pm-2), 10% defined fetal bovine serum, heat inactivated (HyClone Laboratories Inc., Logan, UT, cat. SH30070.03HI), 50% L-WRN conditioned media (ATCC, cat. CRL-3276), 1.25 mM N-Acetyl-L-cysteine (Sigma-Aldrich, cat. A9165), 10 mM nicotinamide (Sigma-Aldrich, cat. N0636), 1X B-27 supplement (Thermo Fisher Scientific, cat. 17504044), 1X N-2 supplement (Thermo Fisher Scientific, cat. […]
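Note: spheroids exposed to drugs for seven days before reading.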
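Throughout, for viability, T/C: 100% = DMSO vehicle control viability in luminescence.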

COc1cccc2c1C(=O)c1c(O)c3c(c(O)c1C2=O)CC(O)(C(=O)CO)CC3OC1CC(N)C(O)C(C)O1 (configuration not stated) + Nc1ccc(C#CCN(C(=O)Cc2ncc(C(F)(F)F)cc2C(F)(F)F)c2ccc(F)cc2)nn1
IC50 (second compound 0.0316 µM): > 10 µM
IC50 (second compound 0.1 µM): > 10 µM
IC50 (second compound 0.316 µM): > 10 µM
IC50 (second compound 1 µM): > 10 µM
IC50 (second compound 3.16 µM): > 10 µM
IC50 (second compound 10 µM): > 10 µM
viability, T/C (second compound 0.0316 µM, first compound 0.0316 µM): 100%
viability, T/C (second compound 0.0316 µM, first compound 0.1 µM): 85%
viability, T/C (second compound 0.0316 µM, first compound 0.316 µM): 79.4%
viability, T/C (second compound 0.0316 µM, first compound 1 µM): 75.7%
viability, T/C (second compound 0.0316 µM, first compound 3.16 µM): 74%
viability, T/C (second compound 0.0316 µM, first compound 10 µM): 58.9%
viability, T/C (second compound 0.1 µM, first compound 0.0316 µM): 108%
viability, T/C (second compound 0.1 µM, first compound 0.1 µM): 80.4%
viability, T/C (second compound 0.1 µM, first compound 0.316 µM): 81.6%
viability, T/C (second compound 0.1 µM, first compound 1 µM): 79.9%
viability, T/C (second compound 0.1 µM, first compound 3.16 µM): 68.4%
viability, T/C (second compound 0.1 µM, first compound 10 µM): 62.4%
viability, T/C (second compound 0.316 µM, first compound 0.0316 µM): 100%
viability, T/C (second compound 0.316 µM, first compound 0.1 µM): 89%
viability, T/C (second compound 0.316 µM, first compound 0.316 µM): 80.1%
viability, T/C (second compound 0.316 µM, first compound 1 µM): 81.5%
viability, T/C (second compound 0.316 µM, first compound 3.16 µM): 73.5%
viability, T/C (second compound 0.316 µM, first compound 10 µM): 62.7%
viability, T/C (second compound 1 µM, first compound 0.0316 µM): 88.6%
viability, T/C (second compound 1 µM, first compound 0.1 µM): 81.9%
viability, T/C (second compound 1 µM, first compound 0.316 µM): 81.2%
viability, T/C (second compound 1 µM, first compound 1 µM): 71.2%
viability, T/C (second compound 1 µM, first compound 3.16 µM): 67.8%
viability, T/C (second compound 1 µM, first compound 10 µM): 58%
viability, T/C (second compound 3.16 µM, first compound 0.0316 µM): 96.7%
viability, T/C (second compound 3.16 µM, first compound 0.1 µM): 85%
viability, T/C (second compound 3.16 µM, first compound 0.316 µM): 87.9%
viability, T/C (second compound 3.16 µM, first compound 1 µM): 75.4%
viability, T/C (second compound 3.16 µM, first compound 3.16 µM): 69.2%
viability, T/C (second compound 3.16 µM, first compound 10 µM): 58.1%
viability, T/C (second compound 10 µM, first compound 0.0316 µM): 92.4%
viability, T/C (second compound 10 µM, first compound 0.1 µM): 81.2%
viability, T/C (second compound 10 µM, first compound 0.316 µM): 94.7%
viability, T/C (second compound 10 µM, first compound 1 µM): 71.5%
viability, T/C (second compound 10 µM, first compound 3.16 µM): 60.4%
viability, T/C (second compound 10 µM, first compound 10 µM): 49.1%
